System: RBL-2H3
Details: Rattus norvegicus
Description: Activity at AMT in rat RBL-2H3 cells

CCCCC/C=C\C/C=C\C/C=C\C/C=C\CCCC(=O)NCCO
Km: 9.3 µM

Reference: ChEMBL document CHEMBL1147236, “Semiplenamides A-G, fatty acid amides from a Papua New Guinea collection of the marine cyanobacterium Lyngbya semiplena” (J Nat Prod, 2003)
